According to patent publication US9187472B2 (AbbVie Inc., priority 2012, dated 2015):

Key:
[1] = target: NAMPT (human, recombinant, C-terminally His-tagged) (Homo sapiens, UniProt P43490); assay: Time-Resolved Fluorescence Resonance Energy Transfer (TR-FRET) Binding Assay of NAMPT; conditions: without substrates; 6.8 nM NAMPT, 200 nM probe, 3 hours equilibration
How it was run: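 Competitive binding against an Oregon Green 488 tracer (200 nM), 6.8 nM His-tagged enzyme, 1 nM Tb antibody, 2% DMSO, 3 h at RT. IC50 derived from TR-FRET ratios.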

PC3 cells = assay: NAMPT Cell Proliferation Assay; type: cell-based; conditions: Homo sapiens, PC-3, 120 h, 5 days incubation, cell viability by Cell Titer Glo
How it was run: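 Seed PC3 at 500 cells/well (RPMI, 10% HI-FBS), attach overnight; add compound, 10-fold series 10 μM → 1×10^−5 μM; incubate 5 d, 37° C/5% CO2; luminescent viability readout; fit % inhibition sigmoidally for IC50.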

NAMPT = NAMPT (Homo sapiens, UniProt P43490); assay: TR-FRET Binding Assay of NAMPT with PRPP; conditions: with 200 μM PRPP and 2.5 mM ATP; 2 nM NAMPT, 2 nM probe, 16 hours equilibration
How it was run: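 Read-out is TR-FRET after a 16 h equilibration allowing possible compound modification by the enzyme. Final mix: 2 nM NAMPT, 2 nM probe, 1 nM Tb-anti-His antibody, 200 μM PRPP, 2.5 mM ATP, 2% DMSO.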

Sequence of NAMPT (P43490 whole entry): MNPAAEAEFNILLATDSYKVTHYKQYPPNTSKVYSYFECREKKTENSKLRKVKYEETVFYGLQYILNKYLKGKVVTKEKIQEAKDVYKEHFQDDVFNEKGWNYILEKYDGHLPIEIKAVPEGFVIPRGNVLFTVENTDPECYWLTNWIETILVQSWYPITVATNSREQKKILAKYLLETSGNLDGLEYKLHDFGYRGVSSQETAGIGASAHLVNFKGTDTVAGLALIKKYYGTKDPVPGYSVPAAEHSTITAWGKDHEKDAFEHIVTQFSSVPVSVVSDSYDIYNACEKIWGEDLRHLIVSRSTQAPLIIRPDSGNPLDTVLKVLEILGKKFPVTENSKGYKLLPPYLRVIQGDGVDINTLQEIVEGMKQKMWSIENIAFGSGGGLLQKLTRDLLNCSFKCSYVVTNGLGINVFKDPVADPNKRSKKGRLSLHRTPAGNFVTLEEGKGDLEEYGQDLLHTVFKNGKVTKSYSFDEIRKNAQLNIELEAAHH
Sequence of NAMPT (human, recombinant, C-terminally His-tagged) (P43490 whole entry): as above

Row | SMILES | IC50 [1] [µM] | IC50 (PC3 cells) [µM] | IC50 (NAMPT) [µM]
1 | CC(C)C(=O)N1CCC(c2ccc(NC(=O)NCc3ccn4ccnc4c3)cc2)C1 (stereo not drawn) [Example 380, 1-(imidazo[1,2-a]pyridin-7-ylmethyl)-3-{4-[1-(2-methylpropanoyl)pyrrolidin-3-yl]phenyl}urea] | 0.179 | 0.04 | 0.000251
2 | CC[C@H](C)C(=O)N1CCC(c2ccc(NC(=O)NCc3ccn4ccnc4c3)cc2)C1 (stereo partly drawn) [Example 381] | 0.0841 | 0.0173 | 0.000259
3 | O=C(NCc1ccn2ccnc2c1)Nc1ccc(C2CCN(C(=O)CC3CC3)C2)cc1 (stereo not drawn) [Example 382] | 0.119 | 0.0838 | 0.000204
4 | O=C(NCc1ccn2ccnc2c1)Nc1ccc(C2CCN(C(=O)c3ccccc3)C2)cc1 (stereo not drawn) [Example 383, 1-[4-(1-benzoylpyrrolidin-3-yl)phenyl]-3-(imidazo[1,2-a]pyridin-7-ylmethyl)urea] | 0.0495 | 0.0133 | 0.000225
5 | CC(C)OCC(=O)N1CCC(c2ccc(NC(=O)NCc3ccn4ccnc4c3)cc2)C1 (stereo not drawn) [Example 384, 1-(imidazo[1,2-a]pyridin-7-ylmethyl)-3-(4-{1-[(propan-2-yloxy)acetyl]pyrrolidin-3-yl}phenyl)urea] | 0.406 | 0.0517 | 0.000375
6 | CC(C)(O)C(=O)N1CCC(c2ccc(NC(=O)NCc3ccn4ccnc4c3)cc2)C1 (stereo not drawn) [Example 385, 1-{4-[1-(2-hydroxy-2-methylpropanoyl)pyrrolidin-3-yl]phenyl}-3-(imidazo[1,2-a]pyridin-7-ylmethyl)urea] | 0.491 | 0.11 | 0.000539
7 | O=C(NCc1ccn2ccnc2c1)Nc1ccc(C2CCN(C(=O)[C@H]3CCCO3)C2)cc1 (stereo partly drawn) [Example 386, 1-(imidazo[1,2-a]pyridin-7-ylmethyl)-3-(4-{1-[(2R)-tetrahydrofuran-2-ylcarbonyl]pyrrolidin-3-yl}phenyl)urea] | 0.283 | 0.0424 | 0.000254
8 | O=C(NCc1ccn2ccnc2c1)Nc1ccc(C2CCN(C(=O)[C@@H]3CCCO3)C2)cc1 (stereo partly drawn) [Example 387, 1-(imidazo[1,2-a]pyridin-7-ylmethyl)-3-(4-{1-[(2S)-tetrahydrofuran-2-ylcarbonyl]pyrrolidin-3-yl}phenyl)urea] | 0.419 | 0.0581 | 0.000467
9 | O=C(NCc1ccn2ccnc2c1)Nc1ccc(C2CCN(C(=O)[C@H]3CCOC3)C2)cc1 (stereo partly drawn) [Example 388, 1-(imidazo[1,2-a]pyridin-7-ylmethyl)-3-(4-{1-[(3S)-tetrahydrofuran-3-ylcarbonyl]pyrrolidin-3-yl}phenyl)urea] | 0.388 | 0.122 | 0.000506
10 | O=C(NCc1ccn2ccnc2c1)Nc1ccc(C2CCN(C(=O)C3CCOCC3)C2)cc1 (stereo not drawn) [Example 389, 1-(imidazo[1,2-a]pyridin-7-ylmethyl)-3-{4-[1-(tetrahydro-2H-pyran-4-ylcarbonyl)pyrrolidin-3-yl]phenyl}urea] | 0.584 | 0.0783 | 0.000617
11 | O=C(NCc1ccn2ccnc2c1)Nc1ccc(C2CCN(C(=O)C3COCCO3)C2)cc1 (stereo not drawn) [Example 390] | 0.133 | 0.0803 | 0.000445
12 | O=C(NCc1ccn2ccnc2c1)Nc1ccc(C2CCN(C(=O)CC3CCOCC3)C2)cc1 (stereo not drawn) [Example 391, 1-(imidazo[1,2-a]pyridin-7-ylmethyl)-3-{4-[1-(tetrahydro-2H-pyran-4-ylacetyl)pyrrolidin-3-yl]phenyl}urea] | 0.171 | 0.0784 | 0.000227
13 | O=C(NCc1ccn2ccnc2c1)Nc1ccc(C2CCN(C(=O)CN3CCOCC3)C2)cc1 (stereo not drawn) [Example 392, 1-(imidazo[1,2-a]pyridin-7-ylmethyl)-3-{4-[1-(morpholin-4-ylacetyl)pyrrolidin-3-yl]phenyl}urea] | 0.814 | 0.666 | 0.000465
14 | CC(C)CCNC(=O)c1ccc(C(=O)NCc2ccn3ccnc3c2)cc1 [Example 393, N-(imidazo[1,2-a]pyridin-7-ylmethyl)-N′-(3-methylbutyl)benzene-1,4-dicarboxamide] | > 10 | > 10 | 0.00437
15 | O=C(NCc1ccn2ccnc2c1)c1ccc(C(=O)NC[C@@H]2CCOC2)cc1 [Example 394, N-(imidazo[1,2-a]pyridin-7-ylmethyl)-N′-[(3S)-tetrahydrofuran-3-ylmethyl]benzene-1,4-dicarboxamide] | > 10 | > 10 | 0.00308
16 | O=C(NCc1ccn2ccnc2c1)c1ccc(-c2cnn(C[C@H]3CCCO3)c2)s1 [Example 395, N-(imidazo[1,2-a]pyridin-7-ylmethyl)-5-{1-[(2R)-tetrahydrofuran-2-ylmethyl]-1H-pyrazol-4-yl}thiophene-2-carboxamide] | 0.0125 | 0.00634 | 0.000193
17 | O=C(Nc1ccc(C(=O)NCC2CCCCO2)cc1)Nc1ccc2ncc(Cl)n2c1 (stereo not drawn) [Example 396, 4-{[(3-chloroimidazo[1,2-a]pyridin-6-yl)carbamoyl]amino}-N-(tetrahydro-2H-pyran-2-ylmethyl)benzamide] | 0.0226 | 0.0324 | 0.00036
18 | O=C(NCc1ccn2ccnc2c1)c1ccc(-c2cnn(C[C@@H]3CCCO3)c2)s1 [Example 397, N-(imidazo[1,2-a]pyridin-7-ylmethyl)-5-{1-[(2S)-tetrahydrofuran-2-ylmethyl]-1H-pyrazol-4-yl}thiophene-2-carboxamide] | 0.0177 | 0.00712 | 0.000169
19 | O=C(CC1CCOC1)Nc1ccc(C(=O)NCc2ccc3ncc(Cl)n3c2)cc1 (stereo not drawn) [Example 398, N-[(3-chloroimidazo[1,2-a]pyridin-6-yl)methyl]-4-[(tetrahydrofuran-3-ylacetyl)amino]benzamide] | 0.21 | 0.0736 | 0.000792
20 | O=C(NCc1ccn2ccnc2c1)c1ccc(C2(O)CCOCC2)s1 [Example 399, 5-(4-hydroxytetrahydro-2H-pyran-4-yl)-N-(imidazo[1,2-a]pyridin-7-ylmethyl)thiophene-2-carboxamide] | 9.5 | 7.68 | 0.00154
21 | CC(C)C(=O)N1CC(O)(c2ccc(C(=O)NCc3ccn4ccnc4c3)s2)C1 [Example 400, 5-[3-hydroxy-1-(2-methylpropanoyl)azetidin-3-yl]-N-(imidazo[1,2-a]pyridin-7-ylmethyl)thiophene-2-carboxamide] | 0.0812 | 0.712 | 0.000298
22 | O=C(NCc1ccn2ccnc2c1)c1ccc(C2(O)CN(C(=O)c3ccccc3)C2)s1 [Example 401, 5-(1-benzoyl-3-hydroxyazetidin-3-yl)-N-(imidazo[1,2-a]pyridin-7-ylmethyl)thiophene-2-carboxamide] | 0.0126 | 0.0559 | 0.000292
23 | CC(C)(C)OC(=O)N1CC(c2ccc(C(=O)NCc3ccn4ccnc4c3)cc2)C1 [Example 402, tert-butyl 3-{4-[(imidazo[1,2-a]pyridin-7-ylmethyl)carbamoyl]phenyl}azetidine-1-carboxylate] | 0.0548 | 0.00671 | 0.000327
24 | CC(C)(C)OC(=O)N1CCC(O)(c2ccc(C(=O)NCc3ccn4ccnc4c3)s2)CC1 [Example 403, tert-butyl 4-hydroxy-4-{5-[(imidazo[1,2-a]pyridin-7-ylmethyl)carbamoyl]thiophen-2-yl}piperidine-1-carboxylate] | 1.55 | 0.0545 | 0.000847
25 | O=C(NCc1ccn2ccnc2c1)Nc1ncc(C(=O)N2CCCCC2)s1 [Example 404, 1-(imidazo[1,2-a]pyridin-7-ylmethyl)-3-[5-(piperidin-1-ylcarbonyl)-1,3-thiazol-2-yl]urea] | 2.55 | 9.41 | 0.00088
26 | CC[C@H](C)C(=O)N1CC(O)(c2ccc(C(=O)NCc3ccn4ccnc4c3)s2)C1 [Example 405, 5-{3-hydroxy-1-[(2S)-2-methylbutanoyl]azetidin-3-yl}-N-(imidazo[1,2-a]pyridin-7-ylmethyl)thiophene-2-carboxamide] | 0.0784 | 0.0221 | 0.000214
27 | O=C(NCc1ccn2ccnc2c1)c1ccc(C2(O)CN(C(=O)CC3CCOCC3)C2)s1 [Example 406, 5-[3-hydroxy-1-(tetrahydro-2H-pyran-4-ylacetyl)azetidin-3-yl]-N-(imidazo[1,2-a]pyridin-7-ylmethyl)thiophene-2-carboxamide] | 1.14 | 0.347 | 0.000505
28 | CC(C)CCNC(=O)c1cnc(NC(=O)NCc2ccn3ccnc3c2)s1 [Example 407, 2-{[(imidazo[1,2-a]pyridin-7-ylmethyl)carbamoyl]amino}-N-(3-methylbutyl)-1,3-thiazole-5-carboxamide] | 0.22 | 1.31 | 0.000659
29 | CC[C@H](C)C(=O)NC1(c2ccc(C(=O)NCc3ccn4ccnc4c3)s2)COC1 [Example 408, N-(imidazo[1,2-a]pyridin-7-ylmethyl)-5-(3-{[(2S)-2-methylbutanoyl]amino}oxetan-3-yl)thiophene-2-carboxamide] | 0.276 | 0.0192 | 0.000725
30 | CC(C)CC(=O)N1CCC(n2nccc2C(=O)NCc2ccn3ccnc3c2)CC1 [Example 409] | > 10 | ≥ 10 | 0.48
